Experimental data: the supplement of paper PMC10307832

Legend:
Experiment in all cases: relative viability (nuclei count vs DMSO), 5 days (fraction); higher = more cells survive
[1] = compound: CCC1=CN=CN=C1N2CCN(CC2)CC3=NC4=C(N3)C=C(C=C4)C(F)(F)F + CC(=O)c1c(C)c2cnc(Nc3ccc(N4CCNCC4)cn3)nc2n(C2CCCC2)c1=O [Palbociclib] (partner 0.5 µM)
Procedure, shortened: (§1)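 Lung cancer cell lines were pin-tool dosed in 1536-well plates on the day after seeding, with either a lone drug or a fixed anchor-drug dose plus five library-drug doses (not always all listed) in √10 steps. Nuclei were counted on 4× images after 5 days. Relative viability is the ratio of treated-well to vehicle-well nuclei counts, with each value a median of duplicate plates.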

Mirin + Luminespib = compound: N=C1NC(=O)/C(=C/c2ccc(O)cc2)S1 [Mirin] + CCNC(=O)c1noc(-c2cc(C(C)C)c(O)cc2O)c1-c1ccc(CN2CCOCC2)cc1 [Luminespib] (partner 0.01 µM)
Procedure, shortened: as §1

[2] = compound: CCn1c(-c2nonc2N)nc2cnc(Oc3cccc(NC(=O)c4ccc(OCCN5CCOCC5)cc4)c3)cc21 + Cc1nc(NC(=O)N2CCC[C@H]2C(N)=O)sc1-c1ccnc(C(C)(C)C(F)(F)F)c1 [Alpelisib] (partner 2 µM)
Procedure, shortened: as §1

[3] = compound: CCn1c(-c2nonc2N)nc2cnc(Oc3cccc(NC(=O)c4ccc(OCCN5CCOCC5)cc4)c3)cc21 + CC(=O)Nc1cccc(-n2c(=O)n(C3CC3)c(=O)c3c(Nc4ccc(I)cc4F)n(C)c(=O)c(C)c32)c1 [Trametinib] (partner 0.02 µM)
Procedure, shortened: as §1

Cell Line | relative viability ([1]; first compound 0.04 µM) | relative viability ([1]; first compound 0.1265 µM) | relative viability ([1]; first compound 0.4 µM) | relative viability ([1]; first compound 1.265 µM) | relative viability ([1]; first compound 4 µM) | relative viability (Mirin + Luminespib; first compound 0.25 µM) | relative viability (Mirin + Luminespib; first compound 0.7906 µM) | relative viability (Mirin + Luminespib; first compound 2.5 µM) | relative viability (Mirin + Luminespib; first compound 7.906 µM) | relative viability (Mirin + Luminespib; first compound 25 µM) | relative viability ([2]; first compound 0.04 µM) | relative viability ([2]; first compound 0.1265 µM) | relative viability ([2]; first compound 0.4 µM) | relative viability ([2]; first compound 1.265 µM) | relative viability ([2]; first compound 4 µM) | relative viability ([3]; first compound 0.04 µM) | relative viability ([3]; first compound 0.1265 µM) | relative viability ([3]; first compound 0.4 µM) | relative viability ([3]; first compound 1.265 µM) | relative viability ([3]; first compound 4 µM)
A-427 | 0.451 | 0.489 | 0.499 | 0.479 | 0.475 | 0.756 | 1.01 | 0.905 | 0.89 | 0.952 | 1.22 | 1.13 | 1.04 | 1.1 | 0.998 | 0.879 | 0.839 | 0.727 | 0.381 | 0.373
SK-LU-1 | 0.412 | 0.394 | 0.41 | 0.26 | 0.418 | 0.193 | 0.188 | 0.228 | 0.163 | 0.197 | 1.17 | 0.821 | 0.599 | 0.42 | 0.349 | 0.481 | 0.386 | 0.378 | 0.254 | 0.311
NCI-H838 | 0.231 | 0.22 | 0.215 | 0.178 | 0.218 | 0.316 | 0.332 | 0.285 | 0.229 | 0.396 | 0.654 | 0.467 | 0.484 | 0.406 | 0.332 | 0.347 | 0.231 | 0.213 | 0.17 | 0.188
LCLC-97TM1 | 0.196 | 0.2 | 0.228 | 0.282 | 0.196 | 0.672 | 0.646 | 0.679 | 0.63 | 0.495 | 0.276 | 0.236 |  | 0.3 | 0.305 | 0.257 | 0.192 |  | 0.197 | 0.19
BEN | 0.454 | 0.487 | 0.469 | 0.437 | 0.464 | 0.484 | 0.593 | 0.503 | 0.315 | 0.217 | 1.06 | 1.03 | 0.787 | 0.326 | 0.329 | 0.955 | 0.972 | 0.702 | 0.518 | 0.521
NCI-H2023 | 0.422 | 0.347 | 0.358 | 0.376 | 0.345 | 0.746 | 0.862 | 0.804 | 0.763 | 0.64 | 0.715 | 0.666 | 0.66 | 0.549 | 0.425 | 0.708 | 0.652 | 0.474 | 0.317 | 0.237
LC-2-ad | 0.471 | 0.48 | 0.501 | 0.466 | 0.472 | 1.02 | 0.837 | 1.05 | 0.968 | 0.721 | 0.945 | 0.542 | 0.797 | 0.658 | 0.515 | 0.991 | 0.952 | 0.983 | 0.712 | 0.623
NCI-H650 | 0.318 | 0.344 | 0.292 | 0.276 | 0.313 | 0.741 | 0.7 | 0.857 |  | 0.811 | 1.31 | 0.893 | 0.745 | 0.434 | 0.492 | 1.11 | 0.826 | 0.597 | 0.587 | 0.588
NCI-H1755 | 0.475 | 0.478 | 0.45 | 0.437 | 0.49 | 0.396 | 0.519 | 0.497 | 0.407 | 0.358 | 0.975 | 1.01 | 0.923 | 0.872 | 0.882 | 0.832 | 0.772 | 0.71 | 0.749 | 0.734
EPLC-272H | 0.338 | 0.302 | 0.324 | 0.318 | 0.327 | 0.176 |  | 0.311 | 0.198 | 0.185 | 1.11 | 0.963 | 0.892 | 0.933 | 0.973 | 0.365 | 0.347 | 0.256 | 0.213 | 0.197
NCI-H1437 | 0.324 | 0.309 | 0.263 | 0.303 | 0.269 | 1.13 | 1.11 | 1.08 | 1.09 | 1.11 | 1.06 | 0.888 | 0.833 | 0.809 | 0.753 | 0.599 | 0.556 | 0.517 | 0.435 | 0.403
EKVX | 0.405 | 0.387 | 0.325 | 0.337 | 0.377 | 0.868 | 0.754 | 0.907 | 0.74 | 0.886 | 1.16 | 0.83 | 0.883 | 0.764 | 0.837 | 0.411 | 0.389 | 0.404 | 0.371 | 0.415
NCI-H1651 | 0.558 | 0.562 | 0.513 | 0.463 | 0.532 | 0.851 | 0.694 | 0.833 | 0.854 | 0.784 | 1.09 | 1.06 | 0.883 | 0.964 | 0.653 | 0.925 | 0.891 | 0.828 | 0.623 | 0.81
HCC-15 | 0.717 | 0.723 | 0.646 | 0.612 | 0.682 | 0.353 | 0.391 | 0.289 | 0.452 | 0.274 | 1.03 | 0.831 | 0.953 | 0.867 | 0.845 | 0.38 | 0.36 | 0.348 | 0.39 | 0.378
LCLC-103H | 0.501 | 0.471 | 0.436 | 0.485 | 0.448 | 0.931 | 1.06 | 0.93 | 1.05 | 1 | 1.2 | 0.935 | 0.961 | 1.11 | 1.03 | 0.651 | 0.737 | 0.655 | 0.638 | 0.639
NCI-H2347 | 0.386 | 0.396 | 0.424 | 0.368 | 0.422 | 0.33 | 0.295 | 0.372 | 0.409 | 0.575 | 1.12 | 1.06 | 0.906 | 0.511 | 0.588 | 0.261 | 0.279 | 0.298 | 0.238 | 0.262
NCI-H1792 | 0.68 | 0.616 | 0.687 | 0.542 | 0.611 | 0.34 | 0.461 | 0.438 |  | 0.423 | 0.84 | 0.773 |  | 0.551 | 0.629 | 0.425 | 0.47 | 0.401 | 0.354 | 0.302
NCI-H647 | 0.518 | 0.345 | 0.346 | 0.292 | 0.374 | 0.115 | 0.11 | 0.17 | 0.241 | 0.09 | 1.04 | 0.746 | 0.795 | 0.657 | 0.577 | 0.494 | 0.38 | 0.261 | 0.303 | 0.286
NCI-H520 | 0.255 | 0.233 | 0.194 | 0.174 | 0.2 | 0.234 | 0.241 | 0.225 | 0.235 | 0.211 | 1.18 | 0.982 | 0.897 | 0.788 | 0.522 | 0.734 | 0.738 | 0.469 | 0.406 | 0.311
NCI-H2085 | 0.371 | 0.398 | 0.473 | 0.488 | 0.442 | 0.422 | 0.343 | 0.46 | 0.473 | 0.453 | 1.15 | 0.959 | 0.86 | 0.869 | 0.845 | 0.634 | 0.57 | 0.521 | 0.574 | 0.535
PC-3 [JPC-3] |  | 0.53 | 0.56 | 0.565 | 0.543 | 0.664 | 0.732 | 0.758 | 0.651 | 0.787 | 1.1 | 1.02 | 1.01 | 1.07 | 1.05 | 0.693 | 0.589 | 0.591 | 0.598 | 0.537
HOP-62 | 0.475 | 0.451 | 0.414 | 0.438 | 0.413 | 0.956 | 0.987 | 0.923 | 1.05 | 1.03 | 1.11 | 1.01 | 0.925 | 0.824 | 1.01 | 0.381 | 0.361 | 0.371 | 0.301 | 0.314
NCI-H2126 | 0.365 | 0.333 | 0.376 | 0.354 | 0.369 | 0.86 | 0.881 | 0.934 | 0.9 | 0.898 | 0.804 | 0.703 | 0.728 | 0.822 | 0.789 | 0.61 | 0.594 | 0.562 | 0.583 | 0.57
NCI-H2087 | 0.264 | 0.235 | 0.242 | 0.184 | 0.201 | 0.184 | 0.135 | 0.169 | 0.161 | 0.158 |  | 0.767 | 0.886 | 0.838 | 0.524 | 0.209 | 0.293 | 0.203 | 0.228 | 0.231
NCI-H1793 | 0.248 | 0.294 | 0.29 | 0.269 | 0.279 | 0.572 |  | 0.235 | 0.196 | 0.171 | 0.639 | 0.671 | 0.662 | 0.652 | 0.599 | 0.356 | 0.476 | 0.425 | 0.401 | 0.327
RERF-LC-KJ | 1.05 | 1.06 | 1.02 | 0.971 | 0.923 | 1.25 | 1.25 | 1.36 | 1.2 | 1.18 | 0.846 | 0.809 | 0.733 | 0.662 | 0.507 | 0.862 | 0.898 | 0.826 | 0.562 | 0.589
H3255 | 0.313 | 0.308 | 0.325 | 0.292 | 0.343 | 0.825 | 0.79 | 0.943 | 0.712 | 0.821 | 1.08 | 0.622 | 0.622 | 0.583 | 0.594 | 0.671 | 0.676 | 0.577 | 0.442 | 0.579
